Experimental data from ChEMBL document CHEMBL1157539, “Thousands of chemical starting points for antimalarial lead identification” (Nature, 2010).

Each compound was assayed on Plasmodium falciparum (assay: GSK_TCMDC: Inhibition of Plasmodium falciparum 3D7 in whole erythrocytes, using parasite LDH activity as an index of growth.). Conditions: Plasmodium falciparum, 3D7.
Type: functional, organism-based
`CC1(C)CCCN(Cc2c(O)ccc3c(O)c(-c4nc5ccccc5s4)c(=N)oc23)C1` was tested, and the XC50 was 0.337 µM.
`CN1CCC(N2CCN(c3ccc4c(=O)nc(CCc5cccc(F)c5F)n(CC(=O)N(C)Cc5ccc(-c6ccc(C(F)(F)F)cc6)cc5)c4n3)CC2)CC1` showed an XC50 of 0.717 µM.
Compound `CCN(CC)CCN(Cc1ccc(-c2ccc(C(F)(F)F)cc2)cc1)C(=O)Cn1c(SCc2ccc(F)c(F)c2F)nc(=O)c2c1CCC2` has an XC50 of 1.02 µM.
`CCc1nc(N)nc(N)c1-c1ccccc1` was tested, and the XC50 was 1.18 µM.
`Oc1cc(NCc2ccccc2NCc2ccc(Cl)c(Cl)c2)nc2ccccc12` was tested, and the XC50 was 0.842 µM.
Work on `CCCN(CCC)C(=O)c1cc(-c2cccc(C)c2)nc2ccccc12` yielded an XC50 of 1.06 µM.
`Oc1ccc(CCNc2nc(NCCCOc3ccccc3-c3ccc(F)cc3)nc(N3CCNCC3)n2)cc1` gave an XC50 of 1.08 µM.
In the case of `O=C(/C=C/c1ccc(Cl)c(Cl)c1)NCCCCCN1CCC(NC(=O)c2ccc(F)cc2F)CC1`, the XC50 is reported as 0.759 µM.
`O=C(Nc1ccccc1)N(Cc1cccc(-c2cccc(CNCc3ccc4c(c3)OCO4)c2)c1)C1CCN(Cc2ccccc2)CC1` gave an XC50 of 0.281 µM.
Work on `CCCc1cc(C)ccc1OCCCON1C(NC(=O)OCC)=NC(NC(=O)OCC)=NC1(C)C` yielded an XC50 of 0.0359 µM.
Work on `Cc1cc(-c2nc3cc(C(=N)N)ccc3[nH]2)c(C)cc1-c1nc2cc(C(=N)N)ccc2[nH]1` yielded an XC50 of 0.397 µM.
With `O=c1sn(-c2csc3ccccc23)c2ccccc12` the XC50 was 0.339 µM.
`COCCNCC(O)Cn1c2ccc(Cl)cc2c2cc(Cl)ccc21` (stereo not drawn) gave an XC50 of 0.052 µM.
`Cc1cccc2nc(-c3ccc(-c4cccc(CN5CCN(c6ccncc6)CC5)c4)cc3)[nH]c12` was tested, and the XC50 was 0.117 µM.
Work on `CC1(C)NC(N)=NC(=N)N1OCCCOc1cccc(Cl)c1` yielded an XC50 of 0.0032 µM.
`CCCc1ccc(-c2csc(NC(=O)c3ccc([N+](=O)[O-])o3)n2)cc1` showed an XC50 of 1.21 µM.
`CN(C)CCOc1ccc(-c2cc(-c3ccc(Cl)c(O)c3)c(-c3ccncc3)o2)cc1` gave an XC50 of 1.45 µM.
`O=C(/C=C/c1ccc(Cl)c(Cl)c1)NCCCCCN1CCC(NC(=O)Nc2cccc(Cl)c2F)CC1` showed an XC50 of 0.378 µM.
For `CC(c1cccc(Nc2nccc(-c3c(-c4cccc(NC(=O)c5c(F)cccc5F)c4)nn4ccccc34)n2)c1)S(C)(=O)=O` (stereo not drawn), the XC50 was 0.0575 µM.
Work on `Cc1nn(C)cc1C(C)Nc1nncc(-c2ccc(C(F)(F)F)cc2)n1` (stereo not drawn) yielded an XC50 of 0.246 µM.
`COc1ccc2nccc([C@@H](O)CN3CCC(NCc4cc5c(Cl)cc(Cl)cc5[nH]4)CC3)c2c1` was tested, and the XC50 was 0.0585 µM.
`Oc1ccc2ccccc2c1CNC1CCCCCC1` showed an XC50 of 0.933 µM.
Work on `Cc1[nH]c2ccc(-c3ccc(N(C)C)cc3)cc2c(=O)c1Cl` yielded an XC50 of 0.72 µM.
With `CN(C)CCOc1cccc(-c2cnc(N)c(-c3nc4cc(S(C)(=O)=O)ccc4[nH]3)c2)c1` the XC50 was 0.95 µM.
In the case of `Cc1noc(C)c1-c1cccc(CNCc2cccc(-c3cccc(-c4nc5cccc(C)c5[nH]4)c3)c2)c1`, the XC50 is reported as 0.37 µM.
For `COc1cc2c(cc1S(=O)(=O)c1ccc(NC(=O)c3cccc(C(F)(F)F)c3)cc1)CCN(C)CC2`, the XC50 was 1.38 µM.
Work on `O=c1[nH]nc(-c2ccc(N3CCCC3)c([N+](=O)[O-])c2)c2ccccc12` yielded an XC50 of 0.631 µM.
For `CCN1CCN(CCCNc2c3ccccc3nc3ccccc23)CC1`, the XC50 was 0.798 µM.
For `Cc1cc(N)c2cc(NC(=O)/C=C/c3ccc([N+](=O)[O-])cc3)ccc2n1`, the XC50 was 0.669 µM.
`Cc1cccc(C(=O)Nc2ccnc(N3CCC(N(C)Cc4ccccc4)CC3)c2)c1` showed an XC50 of 0.962 µM.
With `COc1ccc(CNC2Cc3ccccc3C2)cc1-c1cccc(S(=O)(=O)NCCN2CCCC2)c1` the XC50 was 0.76 µM.
`O=C(/C=C/c1ccc(Cl)c(Cl)c1)NCCCCCN1CCC(NC(=O)Nc2ccc(OC(F)F)cc2)CC1` was tested, and the XC50 was 0.754 µM.
`Cc1cccc2nc(-c3ccc(-c4ccc(CNCCNC(=O)c5ccnn5C)cc4)s3)[nH]c12` showed an XC50 of 0.308 µM.
`CC(C)COc1ccc(Cl)cc1Cc1nc(-c2nc3ccc(CN(C)C)cc3[nH]2)co1` gave an XC50 of 0.711 µM.
`Nc1c2ccccc2nc2cc([N+](=O)[O-])ccc12` was tested, and the XC50 was 0.87 µM.
Work on `COc1ccc2nccc([C@@H](O)CN3CCC(NCc4cc5cccc(O)c5c(=O)[nH]4)CC3)c2c1` yielded an XC50 of 0.385 µM.
In the case of `Oc1ccc2[nH]c(-c3cccs3)nc2c1CN1CCC(O)(c2ccccc2)CC1`, the XC50 is reported as 0.782 µM.
Compound `CCCCCN1CCCN(Cc2cccc(NC(=O)c3cc4ccccc4s3)c2)CC1` has an XC50 of 0.594 µM.
Work on `C#CCNCc1ccc(-c2ccc(-c3nc4cc(C(F)(F)F)ccc4[nH]3)s2)cc1` yielded an XC50 of 0.744 µM.
Compound `COc1ccc(-c2cc(C(=O)N[C@@H](CC3CCCCC3)C(=O)NCCN3CCCCC3)ccc2O)cc1` has an XC50 of 0.95 µM.
Work on `CC1CN(c2cnn(Cc3ccc(NC(=O)Nc4ccc(-c5ccccc5)cc4)cc3)c(=O)c2Cl)CC(C)N1` (stereo not drawn) yielded an XC50 of 0.367 µM.
`COc1ccc(CNCc2cccc(-c3ccc(-c4nc5cccc(C)c5[nH]4)cc3)c2)cc1` showed an XC50 of 0.237 µM.
Work on `O=C(Nc1ccc(CN2CCN(S(=O)(=O)c3cccc(Cl)c3)CC2)cc1)c1cccs1` yielded an XC50 of 1.08 µM.
In the case of `CN1CCN(CCCN(Cc2ccc(-c3ccc(CNCc4ccc5c(c4)OCO5)cc3)cc2)C(=O)CCC2CCCC2)CC1`, the XC50 is reported as 0.952 µM.
Work on `Nc1nc(N)c2cc(N(Cc3ccccc3)Cc3ccccc3)ccc2n1` yielded an XC50 of 0.612 µM.
Compound `O=C(C=Cc1cn(-c2ccccc2)nc1-c1ccccc1)N1CCN(c2ccncc2)CC1` has an XC50 of 0.965 µM.
`COc1ccc(NC(=O)c2cccc(Br)c2)cc1N1CCN(CCCCCCCN2CCN(c3cc(NC(=O)c4cccc(Br)c4)ccc3OC)CC2)CC1` showed an XC50 of 0.184 µM.
With `CCOc1cc(C(=O)Nc2ccc3nc(N4CCN(C)CC4)cc(C)c3c2)cc(OCC)c1OCC` the XC50 was 0.847 µM.
In the case of `O=C(Nc1cccc(Oc2ccccc2)c1)N[C@H]1CCN(Cc2ccc(OCCCN3CCCCC3)cc2)C1`, the XC50 is reported as 0.724 µM.
Work on `COc1ccc(CNC(=O)c2cnc3c(O)cccc3c2Nc2cccc(NC(=O)c3ccc(Cl)c([N+](=O)[O-])c3)c2)cc1` yielded an XC50 of 0.945 µM.
`CCCCNCc1ccc(-c2nc(CN(Cc3ccc(Cl)c(Cl)c3)S(=O)(=O)c3ccc(NC(C)=O)cc3)cs2)cc1` gave an XC50 of 1.03 µM.
In the case of `CN(C)c1ccc(C=Cc2nc(=O)c3ccccc3o2)cc1`, the XC50 is reported as 0.0446 µM.
With `CC[C@H](C)CNC(=O)c1cncc(-c2cccc(CN3CCC(N4CCCC4)CC3)c2)c1` the XC50 was 1.17 µM.
`CC(C)c1sc(N2CCN(C)CC2)nc1C(=O)Nc1cccc2c1CCCC2` gave an XC50 of 1.28 µM.
`Cc1cc(N[C@@H](Cc2ccccc2)C(=O)NCc2cccc(F)c2)nc(NCCOc2ccccc2)n1` gave an XC50 of 0.786 µM.
`CCOC(=O)c1ccc(CC(C)NCC(O)c2cccc(C(F)(F)F)c2)cc1` (stereo not drawn) gave an XC50 of 0.216 µM.
`CC(C)CNCc1cccc(-c2ccc(CN(CCCN3CCN(C)CC3)C(=O)CCC3CCCC3)cc2)c1` was tested, and the XC50 was 0.877 µM.
`CC(C)c1cccc(C(NC(=O)[C@H]2Cc3ccccc3CN2C(=O)c2cccc(N3CCOCC3)c2)C2CCCC2)c1` (stereo partly drawn) gave an XC50 of 0.723 µM.
For `CC(=O)N1N=C(c2ccc(F)cc2)Sc2c1nc(-c1ccccc1)n2C(C)=O`, the XC50 was 0.651 µM.
`O=C(NC1CCC(CN2CCC(c3c[nH]c4ccccc34)CC2)CC1)C1(O)c2ccccc2-c2ccccc21` (stereo not drawn) was tested, and the XC50 was 1.19 µM.
For `c1ccc2[nH]c(-c3ccc(-c4ccc(CNCCc5ccncc5)cc4)s3)nc2c1`, the XC50 was 0.158 µM.
In the case of `NCCCNc1ccc(-c2ccc(NC(=O)Nc3cc(C(F)(F)F)ccc3F)cc2)cn1`, the XC50 is reported as 0.837 µM.
With `COc1cc2c(cc1OCCN1CCC(N3CCCCC3)CC1)N(C(=O)/C=C/c1ccccc1Cl)CC2` the XC50 was 0.28 µM.
For `Cc1cc(N[C@@H](Cc2ccccc2)C(=O)NCCc2ccccc2)nc(NCCc2ccccc2)n1`, the XC50 was 0.85 µM.
Work on `Nc1cccc(CNCc2ccc(-c3ccc(-c4nc5ccccc5[nH]4)s3)cc2)c1` yielded an XC50 of 0.574 µM.
For `O=C(C=Cc1ccc(Cl)c(Cl)c1)NCCCCCN1CCC(CCCNC(=O)c2ccc3c(c2)OCO3)CC1`, the XC50 was 0.149 µM.
For `Cc1cccc2nc(-c3ccc(-c4cccc(NC(=O)c5cncn5C)c4)cc3)[nH]c12`, the XC50 was 0.861 µM.
Work on `N#Cc1cccc(NC(=O)NC2CCN(CCCCCNC(=O)/C=C/c3ccc(Cl)c(Cl)c3)CC2)c1` yielded an XC50 of 0.707 µM.
`COc1cc(NC(=O)c2cc3c(C)nn(-c4cccc(C(F)(F)F)c4)c3s2)cc(OC)c1OC` was tested, and the XC50 was 0.801 µM.
Compound `C=C(C)CSc1nc2c(c(=O)n1Cc1ccco1)C1(CCCCC1)Cc1ccccc1-2` has an XC50 of 0.997 µM.
In the case of `CCC(C)OC(=O)C1=C(C)NC2=C(C(=O)CC(c3ccc(OC)c(OC)c3)C2)C1c1ccc(C)o1` (stereo not drawn), the XC50 is reported as 0.899 µM.
`CC(=O)Nc1ccc2[nH]cc(C3CCN(CC4CCN(C(=O)/C=C/c5ccc(Cl)c(Cl)c5)CC4)CC3)c2c1` gave an XC50 of 0.723 µM.
For `COc1cc(F)c2ncc(Cl)c([C@@H](O)CN3CCC(NCc4ccc5c(n4)NC(=O)CO5)CC3)c2c1`, the XC50 was 0.124 µM.
Work on `Oc1ccc(CCNCc2ccc(OCc3ccccc3)c(OCc3ccccc3)c2)cc1` yielded an XC50 of 1.51 µM.
`Cc1cc(-c2cnc(N)c(-c3ccc(N4CCN(C)CC4)cc3)c2)cc(C)c1O` gave an XC50 of 1.17 µM.
`CCOc1cc(NC(=O)Nc2ccnc3ccccc23)cc(OC)c1` gave an XC50 of 0.866 µM.
Work on `O=C(/C=C/c1ccc(Cl)cc1Cl)NC1CCC(CN2CCC(c3c[nH]c4ccccc34)CC2)CC1` (stereo not drawn) yielded an XC50 of 0.798 µM.
`Cc1[nH]c(C)c(-c2ccc(CCc3ccc(F)cc3F)cc2)c(=O)c1Br` gave an XC50 of 0.00529 µM.
`COCCNc1nc(N2CCC(CNC(=O)c3ccc(-c4ccc(C(=O)N(C)C)cc4C)cc3)CC2)nc2cc(OC)c(OC)cc12` showed an XC50 of 1.02 µM.
`O=C(NC1CCCCN(Cc2ccccc2O)C1)c1cc(F)cc(F)c1` (stereo not drawn) gave an XC50 of 1.17 µM.
`CC(C)(CNC(=O)[C@@H]1CCCN(Cc2ccc(Cl)cc2)C1)c1nc(-c2ccc(Cl)c(O)c2)c(-c2ccncc2)[nH]1` gave an XC50 of 0.941 µM.
`CN(C)CCCNCc1ccc(-c2ccc(CNCCc3ccccc3)cc2)cc1` was tested, and the XC50 was 0.994 µM.
With `O=C(Nc1ccc(Cl)cc1)Nc1cccc(-c2cc(CNCCc3ccccc3)oc2-c2ccncc2)c1` the XC50 was 0.279 µM.
With `O=C(/C=C/c1ccc(Cl)c(Cl)c1)NCCCCCN1CCCN(C(=S)Nc2ccc(Cl)c(Cl)c2)CC1` the XC50 was 0.869 µM.
Work on `Cc1ccc(C(=O)N2CCc3cc4nccc(N5CCN6CCC[C@H]6C5)c4cc32)cc1` yielded an XC50 of 1.1 µM.
Compound `CCCCCCn1c(Sc2ccc(C#N)c([N+](=O)[O-])c2)nnc1-c1cccc(Cl)c1` has an XC50 of 0.609 µM.
`O=C(Cc1ccc(-n2cnnn2)cc1)N(Cc1cncn1Cc1cccc(C(F)(F)F)c1)CC1CC1` was tested, and the XC50 was 0.962 µM.
Compound `CCOC(=O)c1ccc(NC(=O)Nc2ccc(-c3cccc(-c4nc5cccc(C)c5[nH]4)c3)cc2)cc1` has an XC50 of 0.145 µM.
`O=C(CCc1c[nH]cn1)Nc1cccc(-c2ccc(-c3nc4ccccc4[nH]3)cc2)c1` was tested, and the XC50 was 0.651 µM.
In the case of `COc1ccc(NC(=O)[C@H](CC(C)C)Nc2cc(C)nc(NCCc3cccs3)n2)cc1`, the XC50 is reported as 0.964 µM.
Compound `O=C(c1cc(-c2ccccc2)n[nH]1)N1CCN(S(=O)(=O)c2ccc(Cl)s2)CC1` has an XC50 of 0.925 µM.
With `O=C(Nc1ccc(-c2ccc(-c3nc4ccccc4[nH]3)s2)cc1)Nc1ccsc1` the XC50 was 0.279 µM.
With `C=CCn1c(Sc2ccc(C#N)c([N+](=O)[O-])c2)nnc1-c1cc(OC)cc(OC)c1` the XC50 was 0.436 µM.
